Data from paper PMC4552634, “A New Set of Chemical Starting Points with Plasmodium falciparum Transmission-Blocking Potential for Antimalarial Drug Discovery” (PLoS ONE, 2015).
Several values for one entry are separate records, joined by “and”; a condition that tells them apart may be missing. Equal entries are not always repeated. Where two headings read alike, the source gives them in different places.

Experiments:
[1] = system: P. falciparum asexual stages; conditions: asexual stages; TCAMS data; read-out: IC50 asexual; cited from earlier work
[2] = system: P. falciparum stage V gametocytes; assay: Gametocytocidal ATP bioluminescence assay (single point 5 μM and 1 μM, dose-response); type: cell-based, Plasmodium falciparum; conditions: for Ratio IC50 HepG2/IC50 P. falciparum: IC50 HepG2 divided by IC50 P. falciparum gametocytes
Procedure: Purified stage IV-V gametocytes were obtained as previously described [10]. Single point ATP bioluminescence assay and dose–response of positive hits was determined in accordance with the previously published protocol [10].

HepG2 cells = assay: Cytotoxicity in HepG2 cells (intracellular ATP, ATPlite, 48 h); type: cell-based, human; conditions: HepG2 cells; IC50 per ratio column head; unit inferred
[3] = P. falciparum gametocytes, average, read-out: IC50 Pf Gametocytes average, IC50 (µM) average
[4] = sexual stages (gametocytes), dose-response, read-out: IC50 sexual

| SMILES | IC50 [1] [nM] | Ratio IC50 HepG2/IC50 P. falciparum [2] | IC50 [2, 3] | IC50 (HepG2 cells) | IC50 [2, 4] [µM] | inhibition at 5 µM ([2]; Plasmodium falciparum, P. falciparum gametocytes, 5 μM single concentration, 48 h, decrease of ATP level (S1 Table)) [%] | % Inhibition ([2]; P. falciparum gametocytes, 5 μM single concentration, 48 h, decrease of ATP level (S1 Table)) [%] |
| --- | --- | --- | --- | --- | --- | --- | --- |
| CN1CCN(CCCN(Cc2cccc(-c3ccc(CNCCc4ccccc4)cc3)c2)C(=O)c2cccs2)CC1 [TCMDC-140568] | 716 | 6 | 0.89 µM | 5600 nM |  |  |  |
| C=C(C)Cn1cc(C2CCN(CCN3CCC(CNC(=O)c4ccc(-c5ccc(C#N)cc5)cc4)CC3)CC2)c2ccccc21 [TCMDC-138854] | 433 | 1.26 | 2.93 µM | 3700 nM |  |  |  |
| CN(C)CCCOc1ccc(CN2CCC(c3c[nH]c4ccc(NCC5CCCCC5)cc34)CC2)cc1 [TCMDC-140737] | 678 | 14 | 0.5 µM | 6800 nM |  |  |  |
| C=CCOc1ccc2ccccc2c1CNCCCCCCNCc1c(OCC=C)ccc2ccccc12 [TCMDC-137340] | 859 | <6 | 0.25 µM | < 1560 nM |  |  |  |
| Clc1ccc(OCCC2CCN(CCCCCCCN3CCC(CCOc4ccc(Cl)c(Cl)c4)CC3)CC2)cc1Cl [TCMDC-138967] | 624 | 6 and 5.59 | 0.7 µM and 0.47 µM | 4400 nM and 2600 nM |  |  |  |
| Cc1ccc(C)c(NC(=O)CC2C(=O)N(c3ccccc3)C(=S)N2Cc2ccco2)c1 (centres unmarked) [TCMDC-124000] | 570 | >7.7 | 1.3 µM | > 10000 nM |  |  |  |
| CC(C)NCc1ccc(OCc2cccc(COc3ccc(CNC(C)C)cc3I)c2)c(I)c1 [TCMDC-137259] | 92 | 23 | 0.21 µM | 4900 nM |  |  |  |
| CCCCc1ccc(CCNCCCCCCNCCc2ccc(O)c(O)c2)cc1 [TCMDC-131281] | 1070 | 15 | 0.54 µM | 8190 nM | 0.545 |  |  |
| NC(N)=NN=Cc1c2ccccc2c(Cl)c2cc(Cl)ccc12 [TCMDC-137903] | 791 | 3.2 | 2.35 µM | 7500 nM | 2.35 |  |  |
| CCc1c(CCNCCCC(C)CCNCCc2ccc(OC)c(OC)c2CC)ccc(OC)c1OC (centres unmarked) [TCMDC-132065] | 1110 | 13 | 0.45 µM | 6000 nM | 0.453 |  |  |
| O=C(CC1CCCC1)N(Cc1ccc(-c2ccc(CNC3Cc4ccccc4C3)cc2)cc1)CC1CCCCN1 (centres unmarked) [TCMDC-141446] | 1060 | 6.45 | 1 µM | 6470 nM | 1 |  |  |
| COc1ccc2c(c1CCNCCCCNCCc1c(OC)ccc3c1CCCC3)CCCC2 [TCMDC-137324] | 376 | 5 | 0.15 µM | 750 nM |  |  |  |
| CCN=C1NC2=C(CC(C(C)(C)C)CC2)C2(CCC(C(C)(C)C)CC2)S1 (centres unmarked) [TCMDC-131288] | 834 | 5 | 3 µM | 14300 nM |  |  |  |
| COc1cc2ccccc2c(OC)c1CCNCCCCNCCc1c(OC)cc2ccccc2c1OC [TCMDC-137842] | 891 | 10 | 0.31 µM | 3200 nM | 0.305 |  |  |
| O=C(c1cccs1)N(Cc1cccc(-c2ccc(CNC3CCCC3)cc2)c1)C1CCN(Cc2ccccc2)CC1 [TCMDC-140567] | 1130 | 8 | 0.85 µM | 7100 nM | 0.845 |  |  |
| CCc1c(CCNCCCCCCNCCc2ccc(Br)cc2)ccc(OC)c1OC [TCMDC-132045] | 232 | 15 | 0.22 µM | 3200 nM | 0.215 |  |  |
| COc1ccc2ccc(OC)c(CNCCCCCCNCc3c(OC)ccc4ccc(OC)cc34)c2c1 [TCMDC-137796] | 699 | 12 | 0.29 µM | 3400 nM | 0.285 |  |  |
| CCc1c(CCNCCCCCCNCCc2ccc(OC)c(OC)c2C)ccc(OC)c1OC [TCMDC-132051] | 1570 | 10 | 0.77 µM | 7750 nM |  |  |  |

| SMILES | IC50 [1] [nM] | Ratio IC50 HepG2/IC50 P. falciparum [2] | IC50 [2, 3] | IC50 (HepG2 cells) | IC50 [2, 4] [µM] | inhibition at 5 µM ([2]; Plasmodium falciparum, P. falciparum gametocytes, 5 μM single concentration, 48 h, decrease of ATP level (S1 Table)) [%] | % Inhibition ([2]; P. falciparum gametocytes, 5 μM single concentration, 48 h, decrease of ATP level (S1 Table)) [%] |
| --- | --- | --- | --- | --- | --- | --- | --- |
| COc1ccc(CCNC(C)Cc2ccc(C(=O)Nc3ccc(CC(C)NCCc4cccc(Cl)c4)cc3)cc2)cc1 (centres unmarked) [TCMDC-139750] | 248 | 4 | 0.62 µM | 2400 nM |  |  |  |
| CCc1c(CCNCCCCCCNC(C)(C)Cc2ccc3c(c2CC)OCO3)ccc(OC)c1OC [TCMDC-132055] | 934 | 16 | 0.27 µM | 4370 nM | 0.266 |  |  |
| C#CCOc1ccc2ccccc2c1CNCCCCCCNCc1c(OCC#C)ccc2ccccc12 [TCMDC-137838] | 780 | 6.38 | 0.5 µM | 3190 nM |  |  |  |
| COc1cccc(OC)c1CN1CCC(N(C)CCCCCCCCCN2CCC(OC(=O)Nc3ccccc3-c3ccccc3)CC2)CC1 [TCMDC-134690] | 319 | <6 | 0.26 µM | < 1560 nM | 0.255 |  |  |
| CCc1cc(COc2ccc(CNCCC(C)C)cc2I)c(OCc2ccccc2)c(COc2ccc(CNCCC(C)C)cc2I)c1 [TCMDC-137255] | 1110 | 5.71 | 1.02 µM | 5800 nM | 1.01 |  |  |
| CN1CCN(CCCN(Cc2cccc(-c3ccc(CNC4CCCC4)cc3)c2)C(=O)/C=C/c2ccccc2)CC1 [TCMDC-140544] | 746 | 9 | 0.74 µM | 6390 nM | 0.735 |  |  |
| COc1cc(Br)c(S(=O)(=O)n2cc(CN3CCC(N)CC3)c3cc(Cl)ccc32)cc1OC [TCMDC-136384] | 985 | 2.77 | 2.42 µM | 6700 nM | 2.42 |  |  |
| CCCCCCN=C(N)c1ccc(OCCCCCOc2ccc(C(N)=NCCCCCC)cc2)cc1 [TCMDC-137619] | 309 | 17 | 0.31 µM | 5390 nM | 0.309 |  |  |
| CCCCCCCn1c(=N)n(CC(O)c2ccc(Cl)c(Cl)c2)c2ccccc21 (centres unmarked) [TCMDC-124065] | 782 | 3 | 2.02 µM | 6000 nM |  |  |  |
| O=C(/C=C/c1ccc(Cl)c(Cl)c1)NCCCCCN1CCCC(CNS(=O)(=O)c2cccc(C(F)(F)F)c2)C1 (centres unmarked) [TCMDC-139597] | 950 | 0.4 | 8.63 µM | 3800 nM |  |  |  |
| Cc1cc(N[C@@H](Cc2ccccc2)C(=O)NCCc2ccccc2)nc(NCCc2ccccc2)n1 [TCMDC-134776] | 850 | <1 | > 10 µM | 13600 nM |  |  |  |
| CCN(CC)/C(=N/C(=N)NCc1ccc(Cl)cc1Cl)NCCCCCCN/C(=N\C(=N)NCc1ccc(Cl)cc1Cl)N(CC)CC [TCMDC-131819] | 218 |  | 0.3 µM |  |  |  |  |
| CCCCCOc1ccc(C(=NC)N(CCCCC)CCCCC)c2ccccc12 [TCMDC-137703] |  | 7 | 0.89 µM | 6300 nM | 0.885 |  |  |
| CCCCOc1ccc(CNCCCCCCNCc2ccc(OCCCC)c3ccccc23)c2ccccc12 [TCMDC-137281] | 1130 |  |  | 3040 nM and 2800 nM |  |  |  |
| C=CC(C)C1OC(=O)c2cc(OC)cc(OC)c21 (centres unmarked) [TCMDC-138676] |  | 2 | 0.4 µM | 800 nM |  |  |  |
| FC(F)(F)c1ccc2[nH]c(-c3cccc(-c4ccc(CNCc5cnn(-c6ccccc6)n5)cc4)c3)nc2c1 [TCMDC-132964] |  |  |  |  |  | 25 |  |
| Cc1cc(NC(=O)c2cccs2)ccc1OC1CCN(Cc2ccccc2)C1 (centres unmarked) [TCMDC-133968] |  |  |  |  |  |  | -2.76 |
